Assay results reported in PubChem BioAssay (NCI).
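Cultured in 96-well plates, cells were exposed to test compound for 48 hours across five concentrations. Abbreviation: GI50, concentration required for 50% inhibition of growth. TGI is the concentration that stops growth completely.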

How the values were obtained:
Assay in all cases: growth of human tumour cells (NCI), 48 h
[1] = test system: KM12 colon
[2] = test system: MDA-MB-231 breast
[3] = test system: SK-OV-3 ovarian
[4] = test system: CCRF-CEM leukemia
[5] = test system: MCF7 breast
[6] = test system: DU-145 prostate
[7] = test system: COLO 205 colon
[8] = test system: HL-60(TB) leukemia
[9] = test system: OVCAR-4 ovarian
[10] = test system: HOP-62 NSCLC
[11] = test system: IGROV1 ovarian
[12] = test system: HCT-116 colon
[13] = test system: OVCAR-3 ovarian
[14] = test system: PC-3 prostate
[15] = test system: HT29 colon
[16] = test system: SR leukemia
[17] = test system: HS 578T breast
[18] = test system: OVCAR-5 ovarian
[19] = test system: SNB-75 CNS
[20] = test system: M14 melanoma
[21] = test system: U251 CNS
[22] = test system: UO-31 renal
[23] = test system: RPMI-8226 leukemia
[24] = test system: SN12C renal
[25] = test system: MDA-MB-435
[26] = test system: 786-0 renal
[27] = test system: OVCAR-8 ovarian
[28] = test system: NCI-H522 lung
[29] = test system: K-562 leukemia
[30] = test system: NCI-H460 lung
[31] = test system: SF-295 CNS
[32] = test system: NCI-H226 lung
[33] = test system: T-47D breast
[34] = test system: SF-539 CNS
[35] = test system: UACC-257 melanoma
[36] = test system: A549 NSCLC
[37] = test system: SF-268 CNS
[38] = test system: RXF 393 renal
[39] = test system: SK-MEL-28 melanoma
[40] = test system: CAKI-1 renal
[41] = test system: TK-10 renal
[42] = test system: NCI-H23 lung
[43] = test system: SNB-19 CNS
[44] = test system: NCI/ADR-RES ovarian

With CC(O)CCc1ccc(Oc2c3ccccc3nc3occc23)cc1 (stereo not drawn) the GI50 [1] was 3.68 µM, the TGI [1] was 19 µM and the GI50 [2] was 16.6 µM. The TGI [2] was > 100 µM, the GI50 [3] was 15.3 µM and the TGI [3] was 31.8 µM. For the same compound, the GI50 [4] was 9.41 µM, the TGI [4] was 34.8 µM and the GI50 [5] was 3.14 µM. For the same compound, the TGI [5] was 9.27 µM, the GI50 [6] was 16.6 µM and the TGI [6] was 32.2 µM. The GI50 [7] was 5.81 µM, the TGI [7] was 24.1 µM and the GI50 [8] was 1.78 µM. It also gave a TGI [8] of 9.69 µM, a GI50 [9] of 5.08 µM and a TGI [9] of 74 µM. For the same compound, the GI50 [10] was 17.8 µM, the TGI [10] was 31.9 µM and the GI50 [11] was 17.7 µM. The TGI [11] was 56.9 µM, the GI50 [12] was 2.95 µM and the TGI [12] was 15.6 µM. It also gave a GI50 [13] of 4.4 µM, a TGI [13] of 26.7 µM and a GI50 [14] of 5.39 µM. The TGI [14] was 21.7 µM, the GI50 [15] was 4.7 µM and the TGI [15] was 18 µM. It also gave a GI50 [16] of 2.89 µM, a TGI [16] of 9.28 µM and a GI50 [17] of 20.4 µM. It also gave a TGI [17] of 42.6 µM, a GI50 [18] of 11.9 µM and a TGI [18] of 24.3 µM. It also gave a GI50 [19] of 9.86 µM, a TGI [19] of 28.5 µM and a GI50 [20] of 5.54 µM. It also gave a TGI [20] of 17.9 µM, a GI50 [21] of 18.1 µM and a TGI [21] of 33.8 µM. The GI50 [22] was 14.2 µM, the TGI [22] was > 100 µM and the GI50 [23] was 4.91 µM. For the same compound, the TGI [23] was > 100 µM, the GI50 [24] was 10.9 µM and the TGI [24] was 24.2 µM. For the same compound, the GI50 [25] was 3.86 µM, the TGI [25] was 15.6 µM and the GI50 [26] was 9.8 µM. For the same compound, the TGI [26] was 21.9 µM, the GI50 [27] was 5.18 µM and the TGI [27] was 19.6 µM. The GI50 [28] was 19.1 µM, the TGI [28] was > 100 µM and the GI50 [29] was 4.18 µM. The TGI [29] was 31.6 µM, the GI50 [30] was 4.02 µM and the TGI [30] was 16.8 µM. It also gave a GI50 [31] of 4.51 µM, a TGI [31] of 17.1 µM and a GI50 [32] of 3.84 µM. For the same compound, the TGI [32] was 16.8 µM, the GI50 [33] was 1.28 µM and the TGI [33] was 10.9 µM. The GI50 [34] was 13.9 µM, the TGI [34] was 29.5 µM and the GI50 [35] was 3.7 µM. The TGI [35] was 14.4 µM, the GI50 [36] was 4.22 µM and the TGI [36] was 17.6 µM. The GI50 [37] was 11 µM, the TGI [37] was 29.6 µM and the GI50 [38] was 3.2 µM. For the same compound, the TGI [38] was 8.89 µM, the GI50 [39] was 12.3 µM and the TGI [39] was 25.1 µM. It also gave a GI50 [40] of 2.93 µM, a TGI [40] of 13.5 µM and a GI50 [41] of 1.22 µM. The TGI [41] was 7.75 µM, the GI50 [42] was 2.41 µM and the TGI [42] was 12 µM. The GI50 [43] was 13.5 µM, the TGI [43] was 33 µM and the GI50 [44] was 2.7 µM. The TGI [44] was 14.6 µM.
